Test results published in ChEMBL document CHEMBL1127298, “Bis-catechol-substituted redox-reactive analogues of hexamethonium and decamethonium: stimulated affinity-dependent reactivity through iron peroxide catalysis” (J Med Chem, 1994).

How the values were obtained:
Acetylcholine receptor [1] = molecular target: T1, Acetylcholine receptor (Torpedo californica, UniProt P02710+P02712+P02714+P02718); assay: Compound was evaluated for the binding constant for association with nicotinic acetylcholine receptor (nAChR); format: protein-complex assay, Tetronarce californica
T1 sequence (P02710 whole entry): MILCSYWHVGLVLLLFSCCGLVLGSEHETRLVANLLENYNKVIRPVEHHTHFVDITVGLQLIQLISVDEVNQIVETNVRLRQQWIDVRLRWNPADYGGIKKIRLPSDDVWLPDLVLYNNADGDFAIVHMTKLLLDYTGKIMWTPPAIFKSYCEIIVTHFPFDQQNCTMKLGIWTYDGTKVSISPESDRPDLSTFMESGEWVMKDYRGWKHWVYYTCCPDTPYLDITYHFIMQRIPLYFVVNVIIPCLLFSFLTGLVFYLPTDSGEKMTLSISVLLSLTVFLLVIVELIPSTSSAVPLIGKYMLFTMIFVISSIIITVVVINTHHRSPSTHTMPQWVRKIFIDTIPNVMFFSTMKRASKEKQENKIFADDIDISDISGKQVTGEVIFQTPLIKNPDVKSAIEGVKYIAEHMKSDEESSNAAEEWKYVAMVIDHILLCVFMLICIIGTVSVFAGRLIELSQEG
T1 sequence (P02712 whole entry): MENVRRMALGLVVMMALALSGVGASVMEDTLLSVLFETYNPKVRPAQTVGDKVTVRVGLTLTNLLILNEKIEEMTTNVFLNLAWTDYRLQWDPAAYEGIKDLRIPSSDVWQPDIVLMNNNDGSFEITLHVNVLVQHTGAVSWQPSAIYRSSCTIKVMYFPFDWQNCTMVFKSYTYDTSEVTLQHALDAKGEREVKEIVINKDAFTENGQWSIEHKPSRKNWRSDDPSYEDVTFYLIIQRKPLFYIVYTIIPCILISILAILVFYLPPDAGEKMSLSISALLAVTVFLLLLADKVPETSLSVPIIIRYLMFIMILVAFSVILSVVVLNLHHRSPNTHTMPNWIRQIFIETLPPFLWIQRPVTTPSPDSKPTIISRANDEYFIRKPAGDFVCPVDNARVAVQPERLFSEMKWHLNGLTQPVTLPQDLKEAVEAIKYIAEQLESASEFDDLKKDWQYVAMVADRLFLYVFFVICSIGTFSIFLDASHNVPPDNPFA
T1 sequence (P02718 whole entry): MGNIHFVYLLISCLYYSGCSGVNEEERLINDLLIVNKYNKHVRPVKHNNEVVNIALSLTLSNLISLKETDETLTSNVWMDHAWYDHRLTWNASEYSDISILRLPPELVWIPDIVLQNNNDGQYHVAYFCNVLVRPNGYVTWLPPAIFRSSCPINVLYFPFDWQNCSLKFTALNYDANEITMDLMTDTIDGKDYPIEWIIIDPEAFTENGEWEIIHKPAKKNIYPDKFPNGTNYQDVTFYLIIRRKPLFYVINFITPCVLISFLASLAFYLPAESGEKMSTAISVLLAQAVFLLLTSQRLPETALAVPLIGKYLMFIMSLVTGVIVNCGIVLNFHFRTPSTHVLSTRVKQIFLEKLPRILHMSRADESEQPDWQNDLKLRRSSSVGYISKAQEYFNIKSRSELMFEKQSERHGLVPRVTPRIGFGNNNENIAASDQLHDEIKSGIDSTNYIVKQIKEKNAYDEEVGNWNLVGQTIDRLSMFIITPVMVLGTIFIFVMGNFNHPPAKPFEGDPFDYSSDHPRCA
T1 sequence (P02714 whole entry): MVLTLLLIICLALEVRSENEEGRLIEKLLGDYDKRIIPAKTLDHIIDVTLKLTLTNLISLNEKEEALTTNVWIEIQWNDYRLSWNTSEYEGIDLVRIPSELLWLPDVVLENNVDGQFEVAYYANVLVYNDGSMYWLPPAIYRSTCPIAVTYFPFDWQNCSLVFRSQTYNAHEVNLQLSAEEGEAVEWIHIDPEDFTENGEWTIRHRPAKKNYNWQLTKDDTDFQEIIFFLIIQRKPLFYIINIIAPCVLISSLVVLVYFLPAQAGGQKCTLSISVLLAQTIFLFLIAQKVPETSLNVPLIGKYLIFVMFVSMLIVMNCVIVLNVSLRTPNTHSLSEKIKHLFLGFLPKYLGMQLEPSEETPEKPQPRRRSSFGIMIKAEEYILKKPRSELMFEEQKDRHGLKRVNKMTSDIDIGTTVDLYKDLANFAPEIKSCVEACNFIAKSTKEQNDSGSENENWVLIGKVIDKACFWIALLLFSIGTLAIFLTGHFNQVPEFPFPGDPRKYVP

Acetylcholine receptor [2] = molecular target: T1, Acetylcholine receptor; assay: Binding affinity against nicotinic acetylcholine receptor (nAChR); format: protein-complex assay, Tetronarce californica

SMILES | Kd (Acetylcholine receptor [1]) | Ki (Acetylcholine receptor [2])
C[N+](C)(CCCCCC[N+](C)(C)Cc1cccc(O)c1O)Cc1cccc(O)c1O | 18 nM | 18 nM
C[N+](C)(CCCCCCCCCC[N+](C)(C)Cc1cccc(O)c1O)Cc1cccc(O)c1O | 230 nM | –
C[N+](C)(C)Cc1cccc(O)c1O | – | 28000 nM
C[N+](C)(C)CCCCCC[N+](C)(C)C [HEXAMETHONIUM BROMIDE] | 18 nM | –
